Like-named read-outs stand apart in the source and are kept apart here.
Columns and labels:
GSK3β = GSK3β (Homo sapiens, UniProt P49841); test: GSK3β kinase assay (Caliper LabChip3000 mobility shift, fluoresceinated peptide substrate); format: biochemical
Description: (§1) The kinase assay was performed in V-bottom 384-well plates. […] The reaction was incubated at room temperature for 20 hours and terminated by adding 45 μl of 35 mM EDTA to each sample. The reaction mixture was analyzed on the Caliper LabChip3000 (Caliper, Hopkinton, Mass.) by electrophoretic separation of the unphosphorylated substrate and phosphorylated product. […] Compounds were dissolved at 10 mM in dimethylsulfoxide (DMSO) and evaluated at eleven concentrations. IC50 values were derived by non-linear regression analysis.

pTau = pTau assay (no method described); format: cell-based
GSK3α = GSK3α (Homo sapiens, UniProt P49840); test: GSK3α kinase assay (Caliper LabChip3000 mobility shift, fluoresceinated peptide substrate)
Description: as §1

[1] = 250 pM enzyme, 20 uM ATP, 1.5 uM peptide, 20 hours room temperature, first value of cell GSK3β/GSK3α, read-out: GSK3β (nM), IC50

GSK3α, sequence (P49840 whole entry, species assumed): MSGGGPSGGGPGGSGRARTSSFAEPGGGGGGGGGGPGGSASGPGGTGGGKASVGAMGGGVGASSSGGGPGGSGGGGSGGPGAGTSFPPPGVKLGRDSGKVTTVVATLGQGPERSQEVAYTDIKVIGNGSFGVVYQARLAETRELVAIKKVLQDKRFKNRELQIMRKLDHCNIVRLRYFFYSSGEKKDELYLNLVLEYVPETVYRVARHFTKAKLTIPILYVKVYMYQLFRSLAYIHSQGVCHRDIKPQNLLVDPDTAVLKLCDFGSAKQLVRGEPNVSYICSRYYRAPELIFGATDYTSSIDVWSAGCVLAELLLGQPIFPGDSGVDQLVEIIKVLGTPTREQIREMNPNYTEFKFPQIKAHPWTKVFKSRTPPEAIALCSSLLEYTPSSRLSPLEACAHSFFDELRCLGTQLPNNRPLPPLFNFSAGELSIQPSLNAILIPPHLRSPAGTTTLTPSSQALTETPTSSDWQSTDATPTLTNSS
GSK3β, sequence (P49841 whole entry, species assumed): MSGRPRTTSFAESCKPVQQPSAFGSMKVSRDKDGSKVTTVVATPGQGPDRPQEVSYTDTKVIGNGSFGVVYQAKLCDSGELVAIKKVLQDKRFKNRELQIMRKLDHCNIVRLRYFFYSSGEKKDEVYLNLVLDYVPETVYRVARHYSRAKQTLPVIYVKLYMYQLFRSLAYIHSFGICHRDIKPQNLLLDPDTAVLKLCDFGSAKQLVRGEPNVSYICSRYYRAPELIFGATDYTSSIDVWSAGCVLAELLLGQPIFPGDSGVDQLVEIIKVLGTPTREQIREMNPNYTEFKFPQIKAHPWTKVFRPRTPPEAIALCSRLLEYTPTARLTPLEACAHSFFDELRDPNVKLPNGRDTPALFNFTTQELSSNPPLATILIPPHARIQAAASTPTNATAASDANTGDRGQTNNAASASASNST

`O=C(Nc1cncnc1)c1ccnc(Nc2cccc(-c3ccc(Cl)cc3)c2)n1` [Example 193, 2-((4′-Chloro-[1,1′-biphenyl]-3-yl)amino)-N-(pyrimidin-5-yl)pyrimidine-4-carboxamide] gave an IC50 (GSK3β; [1]) of 3.4 nM, an IC50 (pTau) of 620 nM and an IC50 (GSK3α) of 1.8 nM.

Work on `O=C(Nc1cncnc1)c1ccnc(Nc2cccc(-c3ccccc3)c2)n1` [Example 194, 2-([1,1′-Biphenyl]-3-ylamino)-N-(pyrimidin-5-yl)pyrimidine-4-carboxamide] yielded an IC50 (GSK3β; [1]) of 4.4 nM, an IC50 (pTau) of 390 nM and an IC50 (GSK3α) of 2.9 nM.

Compound `Cc1ccccc1-c1cccc(Nc2nccc(C(=O)Nc3cncnc3)n2)c1` [Example 196, 2-((2′-Methyl-[1,1′-biphenyl]-3-yl)amino)-N-(pyrimidin-5-yl)pyrimidine-4-carboxamide] has an IC50 (GSK3β; [1]) of 5.2 nM, an IC50 (pTau) of 840 nM and an IC50 (GSK3α) of 3.9 nM.

Compound `O=C(Nc1cncnc1)c1ccnc(NCC2CC2c2ccc(F)cc2F)n1` (stereo not drawn) [Example 197, 2-(((2-(2,4-Difluorophenyl)cyclopropyl)methyl)amino)-N-(pyrimidin-5-yl)pyrimidine-4-carboxamide] has an IC50 (GSK3β; [1]) of 24 nM, an IC50 (pTau) of 5100 nM and an IC50 (GSK3α) of 21 nM.

`O=C(Nc1cncnc1)c1ccnc(NCC2CC2c2ccc(F)cc2)n1` (stereo not drawn) [Example 198, 2-(((2-(4-Fluorophenyl)cyclopropyl)methyl)amino)-N-(pyrimidin-5-yl)pyrimidine-4-carboxamide] showed an IC50 (GSK3β; [1]) of 35 nM, an IC50 (pTau) of 6500 nM and an IC50 (GSK3α) of 28 nM.

For `COc1cccc(C2CC2CNc2nccc(C(=O)Nc3cncnc3)n2)c1` (stereo not drawn) [Example 199, 2-(((2-(3-Methoxyphenyl)cyclopropyl)methyl)amino)-N-(pyrimidin-5-yl)pyrimidine-4-carboxamide], the IC50 (GSK3β; [1]) was 40 nM, the IC50 (pTau) was 6100 nM and the IC50 (GSK3α) was 33 nM.

`O=C(Nc1cncnc1)c1ccnc(NCC2CC2c2cccc(F)c2)n1` (stereo not drawn) [Example 200, 2-(((2-(3-Fluorophenyl)cyclopropyl)methyl)amino)-N-(pyrimidin-5-yl)pyrimidine-4-carboxamide] was tested, and the IC50 (GSK3β; [1]) was 53 nM, the IC50 (pTau) was 6400 nM and the IC50 (GSK3α) was 59 nM.

`O=C(Nc1cncnc1)c1ccnc(Nc2ccccc2)n1` [Example 201, 2-(Phenylamino)-N-(pyrimidin-5-yl)pyrimidine-4-carboxamide] was tested, and the IC50 (GSK3β; [1]) was 71 nM, the IC50 (pTau) was 4200 nM and the IC50 (GSK3α) was 45 nM.

`O=C(Nc1cncnc1)c1ccnc(N[C@H]2C[C@@H]2c2ccccc2)n1` [Example 202, 2-(((1S,2R)-2-Phenylcyclopropyl)amino)-N-(pyrimidin-5-yl)pyrimidine-4-carboxamide] gave an IC50 (GSK3β; [1]) of 120 nM, an IC50 (pTau) of 2300 nM and an IC50 (GSK3α) of 57 nM.

`O=C(Nc1cncnc1N1CCOCC1)c1ccnc(NCC2CCC2)n1` [Example 203, 2-((Cyclobutylmethyl)amino)-N-(4-morpholinopyrimidin-5-yl)pyrimidine-4-carboxamide] was tested, and the IC50 (GSK3β) was 8.7 nM, the IC50 (pTau) was 600 nM and the IC50 (GSK3α) was 6.1 nM.

Compound `CC(C)(C)CNc1nccc(C(=O)Nc2cncnc2N2CCOCC2)n1` [Example 204] has an IC50 (GSK3β; [1]) of 13 nM, an IC50 (pTau) of 1100 nM and an IC50 (GSK3α) of 11 nM.

`O=C(Nc1cncnc1N1CCOCC1)c1ccnc(NCC2CC2)n1` [Example 205, 2-((Cyclopropylmethyl)amino)-N-(4-morpholinopyrimidin-5-yl)pyrimidine-4-carboxamide] was tested, and the IC50 (GSK3β) was 19 nM, the IC50 (pTau) was 1800 nM and the IC50 (GSK3α) was 22 nM.

`O=C(Nc1cncnc1N1CCOCC1)c1ccnc(NCC2CCOCC2)n1` [Example 206, N-(4-Morpholinopyrimidin-5-yl)-2-(((tetrahydro-2H-pyran-4-yl)methyl)amino)pyrimidine-4-carboxamide] was tested, and the IC50 (GSK3β; [1]) was 74 nM, the IC50 (pTau) was 4700 nM and the IC50 (GSK3α) was 99 nM.
